Values joined by “and” are separate entries in the source; they are usually repeats but may differ in a detail not shown here. Identical values can stand only once. ± gives the uncertainty stated by the source. Each block holds one compound with its values, some of them ahead of it.
What was measured:
[1] = xn = mol fraction of the nth substance listed

SMILES: CC(=O)OCc1ccccc1
- viscosity (323.15 K, 101.33 kPa): 1.23 ± 0.18 mPa·s

SMILES: CCCC[N+]1(C)CCCCC1.O=S(=O)([N-]S(=O)(=O)C(F)(F)F)C(F)(F)F
- viscosity (298.15 K, 101 kPa): 178.5 ± 8.6 mPa·s

SMILES: CCOCCOCC
- viscosity (298.15 K, 101.33 kPa): 0.602 ± 0.017 mPa·s
- viscosity (308.15 K, 101.33 kPa): 0.522 ± 0.015 mPa·s

SMILES: ClC(Cl)Cl
- viscosity (293.15 K, 101.33 kPa): 0.5659 ± 0.016 mPa·s
- viscosity (293.16 K, 101 kPa): 0.563 ± 0.015 mPa·s
- viscosity (298 K, 101 kPa): 0.5427 ± 0.0079 mPa·s
- viscosity (298 K, 101.33 kPa): 0.538 ± 0.007 mPa·s
- viscosity (298.16 K, 101 kPa): 0.542 ± 0.014 mPa·s
- viscosity (303 K, 101.3 kPa): 0.5254 ± 0.019 mPa·s and 0.5249 ± 0.0097 mPa·s
- viscosity (303 K, 101.33 kPa): 0.517 ± 0.007 mPa·s
- viscosity (303.15 K, 101.3 kPa): 0.5129 ± 0.0036 mPa·s and 0.5129 ± 0.051 mPa·s and 0.5033 ± 0.0094 mPa·s
- viscosity (303.15 K, 101.33 kPa): 0.514 ± 0.1 mPa·s and 0.471 ± 0.014 mPa·s
- viscosity (303.16 K, 101 kPa): 0.514 ± 0.014 mPa·s
- viscosity (303.75 K, 101 kPa): 0.5393 ± 0.014 mPa·s
- viscosity (308 K, 101 kPa): 0.4881 ± 0.0073 mPa·s
- viscosity (308.15 K, 101 kPa): 0.482 ± 0.005 mPa·s
- viscosity (308.15 K, 101.33 kPa): 0.452 ± 0.013 mPa·s and 0.5065 ± 0.0051 mPa·s and 0.485 ± 0.004 mPa·s
- viscosity (311 K, 101.3 kPa): 0.4893 ± 0.018 mPa·s and 0.4893 ± 0.0092 mPa·s
- viscosity (313 K, 101.33 kPa): 0.479 ± 0.006 mPa·s
- viscosity (313.15 K, 101 kPa): 0.472 ± 0.01 mPa·s and 0.4891 ± 0.013 mPa·s and 0.557 ± 0.015 mPa·s
- viscosity (318 K, 101 kPa): 0.4487 ± 0.0068 mPa·s
- viscosity (318.15 K, 101.33 kPa): 0.442 ± 0.004 mPa·s
- viscosity (319 K, 101.3 kPa): 0.4566 ± 0.017 mPa·s and 0.4571 ± 0.0087 mPa·s
- viscosity (323 K, 101.33 kPa): 0.447 ± 0.006 mPa·s
- viscosity (323.15 K, 101 kPa): 0.491 ± 0.013 mPa·s
- viscosity (323.15 K, 101.33 kPa): 0.4473 ± 0.0045 mPa·s

SMILES: FC(F)Cl
- viscosity (293.25 K, 101 kPa): 0.1758 ± 0.0048 mPa·s
- viscosity (313.35 K, 101 kPa): 0.1381 ± 0.0038 mPa·s

SMILES: O=C(O)CCl
- viscosity (323.15 K, 101 kPa): 3.091 ± 0.03 mPa·s

SMILES: O=CC(Cl)(Cl)Cl
- viscosity (298.15 K, 101 kPa): 1.055 ± 0.044 mPa·s and 1.055 ± 0.01 mPa·s (2×)
- viscosity (298.15 K, 101.33 kPa): 1.055 ± 0.014 mPa·s
- viscosity (308.15 K, 101 kPa): 0.9017 ± 0.0089 mPa·s
- viscosity (313.15 K, 101 kPa): 1.009 ± 0.027 mPa·s and 0.8411 ± 0.022 mPa·s
- viscosity (318.15 K, 101 kPa): 0.934 ± 0.025 mPa·s
- viscosity (323.15 K, 101 kPa): 0.764 ± 0.032 mPa·s and 0.7641 ± 0.0076 mPa·s and 0.869 ± 0.023 mPa·s
- viscosity (323.15 K, 101.33 kPa): 0.7641 ± 0.01 mPa·s

Further lines, with some results ahead:

- viscosity (293.15 K, 101.33 kPa): 1.326 ± 0.013 mPa·s
- viscosity (301.15 K, 101 kPa): 1.168 ± 0.0096 mPa·s
- viscosity (302.15 K, 101 kPa): 1.148 ± 0.007 mPa·s
- viscosity (303.15 K, 101.33 kPa): 1.12 ± 0.029 mPa·s
- viscosity (305.15 K, 101 kPa): 1.099 ± 0.0067 mPa·s
- viscosity (308.15 K, 101 kPa): 1.047 ± 0.0064 mPa·s
- viscosity (311.15 K, 101 kPa): 1.008 ± 0.0062 mPa·s
- viscosity (313.15 K, 101 kPa): 0.9841 ± 0.0061 mPa·s
- viscosity (313.15 K, 101.33 kPa): 1.004 ± 0.01 mPa·s
- viscosity (315.15 K, 101 kPa): 0.9512 ± 0.0082 mPa·s
SMILES: CC(C)C(=O)O

- viscosity (293.15 K, 100 kPa): 2.115 ± 0.046 mPa·s
- viscosity (298.15 K, 100 kPa): 1.919 ± 0.12 mPa·s
- viscosity (303.15 K, 100 kPa): 1.745 ± 0.11 mPa·s
- viscosity (318.15 K, 100 kPa): 1.345 ± 0.081 mPa·s
- viscosity (323.15 K, 100 kPa): 1.243 ± 0.075 mPa·s
SMILES: CCCCCCCCCC(=O)OC

- viscosity (293.15 K, 100 kPa): 3.408 ± 0.04 mPa·s
- viscosity (293.15 K, 101 kPa): 3.408 ± 0.023 mPa·s
- viscosity (293.15 K, 102 kPa): 3.48 ± 0.03 mPa·s
- viscosity (293.2 K, 101.3 kPa): 3.507 ± 0.039 mPa·s
- viscosity (298.15 K, 101 kPa): 3.002 ± 0.03 mPa·s
- viscosity (303.15 K, 101 kPa): 2.703 ± 0.072 mPa·s
- viscosity (303.2 K, 101.3 kPa): 2.78 ± 0.031 mPa·s
- viscosity (308.15 K, 101.33 kPa): 2.381 ± 0.055 mPa·s
- viscosity (318.15 K, 100 kPa): 1.996 ± 0.024 mPa·s
- viscosity (318.15 K, 101 kPa): 1.996 ± 0.015 mPa·s
- viscosity (318.15 K, 101.33 kPa): 1.92 ± 0.045 mPa·s
- viscosity (318.16 K, 101 kPa): 2.039 ± 0.015 mPa·s
- viscosity (323.15 K, 102 kPa): 1.85 ± 0.02 mPa·s
SMILES: CCCCCCCCCCCCCCCC

- viscosity (313.15 K, 101 kPa): 1480 ± 110 mPa·s
- viscosity (323.15 K, 101 kPa): 750 ± 46 mPa·s
SMILES: CCCCCCCCCCCCCC[P+](CCCC)(CCCC)CCCC.CCCCCCCCCCCCc1ccccc1S(=O)(=O)[O-]

- viscosity (293.15 K, 101 kPa): 84.14 ± 2.4 mPa·s
- viscosity (298.15 K, 101 kPa): 84.3 ± 24 mPa·s and 68.5 ± 4.2 mPa·s
- viscosity (308.15 K, 101 kPa): 56.7 ± 5.9 mPa·s and 45.5 ± 2.8 mPa·s
- viscosity (323.15 K, 101 kPa): 28.33 ± 0.49 mPa·s
SMILES: CC[n+]1ccn(C)c1.COS(=O)(=O)[O-]
- viscosity (303.15 K, 101 kPa): 68.7 ± 12 mPa·s and 55.4 ± 3.4 mPa·s and 57.93 ± 2 mPa·s
- viscosity (313.15 K, 101 kPa): 47.6 ± 6.7 mPa·s and 37.9 ± 2.3 mPa·s and 39.54 ± 0.55 mPa·s

- viscosity (308.15 K, 101 kPa): 137.5 ± 6.2 mPa·s
- viscosity (313.15 K, 101 kPa): 103.5 ± 4.1 mPa·s
SMILES: CCn1cc[n+](C)c1.C[C@H](N)C(=O)[O-]

- viscosity (298.15 K, 100 kPa): 3.367 ± 0.069 mPa·s
- viscosity (323.15 K, 100 kPa): 1.518 ± 0.032 mPa·s
SMILES: OCC(F)(F)C(F)(F)F

- viscosity ([1]; 298.15 K, 101.33 kPa, x1 = 0.0535): 0.6803 ± 0.006 mPa·s
- viscosity ([1]; 298.15 K, 101.33 kPa, x1 = 0.09944): 0.7563 ± 0.0066 mPa·s
- viscosity ([1]; 298.15 K, 101.33 kPa, x1 = 0.2199): 0.9761 ± 0.0082 mPa·s
- viscosity ([1]; 298.15 K, 101.33 kPa, x1 = 0.3234): 1.161 ± 0.0095 mPa·s
- viscosity ([1]; 298.15 K, 101.33 kPa, x1 = 0.4341): 1.429 ± 0.011 mPa·s
- viscosity ([1]; 298.15 K, 101.33 kPa, x1 = 0.5194): 1.649 ± 0.013 mPa·s
- viscosity ([1]; 298.15 K, 101.33 kPa, x1 = 0.641): 1.972 ± 0.015 mPa·s
- viscosity ([1]; 298.15 K, 101.33 kPa, x1 = 0.6928): 2.107 ± 0.016 mPa·s
- viscosity ([1]; 298.15 K, 101.33 kPa, x1 = 0.8361): 2.492 ± 0.019 mPa·s
- viscosity ([1]; 298.15 K, 101.33 kPa, x1 = 0.9416): 2.887 ± 0.022 mPa·s
SMILES: CCCCCCCCCCCCCCCC + c1ccccc1
- viscosity ([1]; 298 K, 101 kPa, x2 = 0.5): 1.65 ± 0.043 mPa·s and 1.651 ± 0.043 mPa·s
- viscosity ([1]; 318 K, 101 kPa, x2 = 0.5): 1.192 ± 0.032 mPa·s and 1.193 ± 0.032 mPa·s

— the CheMixHub viscosity set
